These are literature values, as cited in article PMC8522729 (Antimicrobial Agents and Chemotherapy, 2021).

The data set relates to M. tuberculosis. Conditions: cited from earlier work.

`O=C1CCc2c(OC[C@]3(O)CCN(c4c(F)cc(Cl)cc4F)C[C@H]3O)ccc(F)c2N1` [OPC-167832]: the frequency of resistance is listed as < 1.9 × 10^−7.
